The source of these data is ChEMBL document CHEMBL5390237, “Discovery of Selective Histone Deacetylase 1 and 2 Inhibitors: Screening of a Focused Library Constructed by Click Chemistry, Kinetic Binding Analysis, and Biological Evaluation” (J Med Chem, 2023).

For the first experiment, the target named is T1, Histone deacetylase 2 (Homo sapiens, UniProt Q92769). As to the kind of experiment: Inhibition of full-length recombinant human C-terminal GST tagged HDAC2 expressed in Sf9 insect cells using aminoluciferin peptide substrate at 100 nM preincubated for 3 hrs followed by substrate addition and measured after 30 mins by HDAC-Glo I/II chemiluminescence assay. The settings on record: time 3.5 hrs.
T1 sequence (Q92769 whole entry): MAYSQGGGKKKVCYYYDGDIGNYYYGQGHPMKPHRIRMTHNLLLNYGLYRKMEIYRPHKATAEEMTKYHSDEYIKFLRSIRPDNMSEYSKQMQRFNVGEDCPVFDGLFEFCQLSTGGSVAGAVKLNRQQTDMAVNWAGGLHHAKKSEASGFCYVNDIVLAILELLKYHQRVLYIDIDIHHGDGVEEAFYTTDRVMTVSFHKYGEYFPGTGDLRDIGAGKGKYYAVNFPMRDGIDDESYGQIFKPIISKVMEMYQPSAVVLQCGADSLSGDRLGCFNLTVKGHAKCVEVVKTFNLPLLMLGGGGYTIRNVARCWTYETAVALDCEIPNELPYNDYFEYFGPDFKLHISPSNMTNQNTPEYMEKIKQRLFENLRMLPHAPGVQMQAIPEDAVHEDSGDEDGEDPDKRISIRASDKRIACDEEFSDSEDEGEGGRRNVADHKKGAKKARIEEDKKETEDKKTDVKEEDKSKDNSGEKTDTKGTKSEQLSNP
Consider `Cc1cccc(CCn2cc(CCC(=O)Nc3cc(-c4cccs4)ccc3N)nn2)c1`, for which the inhibition (usually the change of the read-out against control, counted positive when it falls) stood at 24%.

For the compound `COc1ccc(CCn2cc(C(=O)Nc3cc(-c4ccccc4)ccc3N)nn2)cc1`, the inhibition stood at 0%.

As for `Cc1ccccc1CCn1cc(-c2ccc(C(=O)Nc3cc(-c4cccs4)ccc3N)cc2)nn1`, the inhibition was 0%.

Regarding `COc1ccc(Cn2cc(CCC(=O)Nc3cc(-c4ccc(F)cc4)ccc3N)nn2)cc1`, the inhibition stood at 17%.

With `COc1ccc(Cn2cc(CCC(=O)Nc3cc(-c4cccs4)ccc3N)nn2)cc1`, the inhibition came to 10%.

For the compound `Nc1ccc(-c2cccs2)cc1NC(=O)c1ccc(-c2cn(CCCCC(=O)O)nn2)s1`, the inhibition is 51%.

As to `Nc1ccc(-c2ccsc2)cc1NC(=O)CCc1cn(CCc2ccc(F)cc2)nn1`, the inhibition came out at 21%.

As for `Nc1ccc(-c2cccs2)cc1NC(=O)CCc1cn(CCc2ccccc2C(F)(F)F)nn1`, the inhibition is 0%.

On to `COc1ccc(CCn2cc(CCC(=O)Nc3cc(-c4ccsc4)ccc3N)nn2)cc1`, for which the inhibition amounted to 29%.

Take `Nc1ccc(-c2cccs2)cc1NC(=O)c1cccc(-c2cn(-c3ccc(Br)cc3)nn2)c1`: the inhibition was found to be 0%.

In the case of `Nc1ccc(-c2ccsc2)cc1NC(=O)CCc1cn(CCN2CCc3ccccc3C2)nn1`, the inhibition was 18%.

As for `Nc1ccc(-c2cccs2)cc1NC(=O)CCc1cn(Cc2cccc(-c3ccccc3)c2)nn1`, the inhibition amounted to 0%.

Consider `Nc1ccc(-c2cccs2)cc1NC(=O)c1cn(Cc2cccc(C(=O)O)c2)nn1`, for which the inhibition is 0%.

For `Nc1ccc(-c2cccs2)cc1NC(=O)c1cccc(-c2cn(/C=C/c3ccccc3)nn2)c1`, the inhibition was 10%.

With `Nc1ccc(-c2ccccc2)cc1NC(=O)c1cn(Cc2ccc3ccccc3c2)nn1`, the inhibition amounted to 1%.

Regarding `Nc1ccc(-c2cccs2)cc1NC(=O)c1cccc(-c2cn(CCc3ccccc3Cl)nn2)c1`, the inhibition is 0%.

As to `Nc1ccc(-c2cccnc2)cc1NC(=O)CCc1cn(Cc2cc3ccccc3s2)nn1`, the inhibition was determined as 9%.

Turning to `Nc1ccc(-c2ccc(F)cc2)cc1NC(=O)CCc1cn(CCc2cccc(F)c2)nn1`, the inhibition was 15%.

Regarding `Nc1ccc(-c2ccccc2)cc1NC(=O)c1cn(Cc2cccc3ccccc23)nn1`, the inhibition came to 2%.

In the case of `Cc1csc(CCn2cc(CCC(=O)Nc3cc(-c4cccs4)ccc3N)nn2)n1`, the inhibition is 30%.

In the case of `Nc1ccc(-c2cccs2)cc1NC(=O)CCc1cn(CCc2ccccn2)nn1`, the inhibition amounted to 7%.

In the case of `Nc1ccc(-c2ccccc2)cc1NC(=O)CCc1cn(CCc2ccc(Cl)cc2)nn1`, the inhibition was 0%.

A further experiment addresses T1, Histone deacetylase 2. The settings on record: Sf9, time 60.0 min.
`CC(=O)Nc1ccc(C(=O)Nc2cc(-c3cccs3)ccc2N)cc1`: the ka is 13300 M⁻¹ s⁻¹.

Regarding `Nc1ccccc1NC(=O)c1ccc(CNC(=O)OCc2cccnc2)cc1`, the ka is 7670 M⁻¹ s⁻¹.

Another experiment has as its target T1, Histone deacetylase 2. The settings on record: Sf9, time 60.0 min. The source holds these as a separate data set.
Regarding `CC(=O)Nc1ccc(C(=O)Nc2cc(-c3cccs3)ccc2N)cc1`, the Kdiss worked out at 6.67e-05 s⁻¹.

Take `Nc1ccccc1NC(=O)c1ccc(CNC(=O)OCc2cccnc2)cc1`: the Kdiss was 5e-05 s⁻¹.
